Strand notation (5' to 3'): a small letter for the sugar, then the base; units joined by * are phosphorothioate-linked, units joined directly phosphodiester-linked; [ ] holds rarer units or linkages, { } end groups; capitals alone tell only the bases. k = constrained ethyl (cEt); [5mC] = 5-methylcytosine; d = 2'-deoxy (DNA)

The test system of one series is human SMAD7 mRNA. The series is described as follows: Antisense inhibition of human SMAD7 mRNA expression in Hep3B cells by 3-10-3 cEt gapmers, 10,000 nM, electroporation (Example 2). The conditions noted are these: Hep3B cells, 10,000 nM antisense oligonucleotide, electroporation, approximately 24 hours, RT-PCR primer probe set RTS5062, relative to untreated control cells. It is filed as cell-based. Summed up:
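Hep3B cells (20,000 per well) were electroporated with 10,000 nM 16-mer 3-10-3 cEt gapmer (phosphorothioate, 5-methylcytosine). After about 24 h, SMAD7 mRNA was quantified by qRT-PCR with primer probe set RTS5062, normalised to RIBOGREEN total RNA, and expressed as percent inhibition versus untreated cells.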
A word on the % Inhibition: it is the relative decrease from the control value, in per cent. For “798857 (kT*kG*k[5mC]*dT*dG*d[5mC]*dG*dG*dT*dT*dG*dT*dA*k[5mC]*kA*k[5mC]; antisense) [compound 798857]”, the “% Inhibition” value was determined as 11%.
The same measure, in the same setting: then “798858 (kG*kG*kT*dA*dA*d[5mC]*dT*dG*d[5mC]*dT*dG*d[5mC]*dG*kG*kT*kT; antisense) [compound 798858]”, with 46%.
On the same count and under the same terms, then “798859 (k[5mC]*kG*kG*dA*d[5mC]*dT*dT*dG*dA*dT*dG*dA*dA*kG*kA*kT; antisense) [compound 798859]”, with 14%; and “798860 (kT*kG*kG*d[5mC]*dG*dG*dA*d[5mC]*dT*dT*dG*dA*dT*kG*kA*kA; antisense) [compound 798860]”, with 22%; and “798871 (kA*kA*kA*dG*d[5mC]*d[5mC]*dT*dT*dG*dA*dT*dG*dG*kA*kG*kA; antisense) [compound 798871]”, with 20%.
Still for that read-out and setting: then “798872 (kT*kA*kG*dT*d[5mC]*dG*dA*dA*dA*dG*d[5mC]*d[5mC]*dT*kT*kG*kA; antisense) [compound 798872]”, with 2%; and “798873 (kG*k[5mC]*kT*dG*dT*dA*d[5mC]*dG*d[5mC]*d[5mC]*dT*dT*d[5mC]*kT*k[5mC]*kG; antisense) [compound 798873]”, with 27%.
Take “798874 (kG*k[5mC]*kA*dG*dG*d[5mC]*dT*dG*dT*dA*d[5mC]*dG*d[5mC]*k[5mC]*kT*kT; antisense) [compound 798874]”: the “% Inhibition” value amounted to 27%.
The same measure, in the same setting: under “798875 (k[5mC]*kG*k[5mC]*dT*dG*d[5mC]*dA*dG*dG*d[5mC]*dT*dG*dT*kA*k[5mC]*kG; antisense) [compound 798875]” stands 58%.
In the case of “798876 (kG*kG*k[5mC]*d[5mC]*dG*d[5mC]*dT*dG*d[5mC]*dA*dG*dG*d[5mC]*kT*kG*kT; antisense) [compound 798876]”, the “% Inhibition” value is 50%.
Take “798877 (k[5mC]*kA*kT*dT*dG*dG*dG*d[5mC]*d[5mC]*dG*d[5mC]*dT*dG*k[5mC]*kA*kG; antisense) [compound 798877]”: the “% Inhibition” value is given as 24%.
In the case of “798878 (k[5mC]*kT*kG*d[5mC]*dT*dG*d[5mC]*dA*dT*dA*dA*dA*d[5mC]*kT*k[5mC]*kG; antisense) [compound 798878]”, the “% Inhibition” value is given as 49%.
Still for that read-out and setting: then “798889 (k[5mC]*kA*k[5mC]*dA*dA*dA*dG*d[5mC]*dT*dG*dA*dT*d[5mC]*kT*kG*k[5mC]; antisense) [compound 798889]”, with 0%; and “798890 (k[5mC]*kT*kT*d[5mC]*dA*d[5mC]*dA*dA*dA*dG*d[5mC]*dT*dG*kA*kT*k[5mC]; antisense) [compound 798890]”, with 40%; and “798891 (kG*k[5mC]*k[5mC]*d[5mC]*dT*dT*d[5mC]*dA*d[5mC]*dA*dA*dA*dG*k[5mC]*kT*kG; antisense) [compound 798891]”, with 58%.
The same measure, in the same setting: under “798892 (k[5mC]*k[5mC]*k[5mC]*d[5mC]*dA*dG*d[5mC]*d[5mC]*d[5mC]*dT*dT*d[5mC]*dA*k[5mC]*kA*kA; antisense) [compound 798892]” stands 39%.
On the same count and under the same terms, under “798893 (kT*kG*kG*d[5mC]*d[5mC]*d[5mC]*d[5mC]*dA*dG*d[5mC]*d[5mC]*d[5mC]*dT*kT*k[5mC]*kA; antisense) [compound 798893]” stands 77%.
Turning to “798894 (kA*kG*k[5mC]*dA*d[5mC]*dT*dG*dG*d[5mC]*d[5mC]*d[5mC]*d[5mC]*dA*kG*k[5mC]*k[5mC]; antisense) [compound 798894]”, the “% Inhibition” value was 55%.
On the same count and under the same terms, then “798895 (kT*kG*kT*dA*dG*d[5mC]*dA*d[5mC]*dT*dG*dG*d[5mC]*d[5mC]*k[5mC]*k[5mC]*kA; antisense) [compound 798895]”, with 53%.
Same read-out and setting: then “798896 (kG*kG*kG*dT*dG*dT*dA*dG*d[5mC]*dA*d[5mC]*dT*dG*kG*k[5mC]*k[5mC]; antisense) [compound 798896]”, with 46%; and “798897 (kG*kG*k[5mC]*dG*dG*dG*dT*dG*dT*dA*dG*d[5mC]*dA*k[5mC]*kT*kG; antisense) [compound 798897]”, with 60%.

The same series, now with this note: Hep3B cells, electroporation with 10,000 nM antisense oligonucleotide, approximately 24 hours, SMAD7 mRNA by RT-PCR (RTS5062), relative to untreated control cells.
“798861 (kG*kT*kG*dT*dG*dG*d[5mC]*dG*dG*dA*d[5mC]*dT*dT*kG*kA*kT; antisense) [compound 798861]”: the “% Inhibition” value came to 24%.
Regarding “798862 (kT*k[5mC]*k[5mC]*dA*dG*dT*dG*dT*dG*dG*d[5mC]*dG*dG*kA*k[5mC]*kT; antisense) [compound 798862]”, the “% Inhibition” value worked out at 20%.
On to “798863 (kG*kG*kG*dT*dT*dG*dT*d[5mC]*d[5mC]*dA*dG*dT*dG*kT*kG*kG; antisense) [compound 798863]”, for which the “% Inhibition” value is listed as 41%.
Still for that read-out and setting: then “798864 (kG*kT*k[5mC]*d[5mC]*dG*dG*dG*dT*dT*dG*dT*d[5mC]*d[5mC]*kA*kG*kT; antisense) [compound 798864]”, with 33%; and “798865 (kG*kG*kA*dG*dT*d[5mC]*d[5mC]*dG*dG*dG*dT*dT*dG*kT*k[5mC]*k[5mC]; antisense) [compound 798865]”, with 8%; and “798866 (kG*kT*k[5mC]*d[5mC]*dT*dG*dG*dA*dG*dT*d[5mC]*d[5mC]*dG*kG*kG*kT; antisense) [compound 798866]”, with 20%.
Still for that read-out and setting: under “798867 (kT*kT*kG*dT*dG*dT*dA*d[5mC]*d[5mC]*dA*dA*d[5mC]*dA*kG*k[5mC]*kG; antisense) [compound 798867]” stands 29%; under “798868 (kA*k[5mC]*k[5mC]*dT*dT*dG*dT*dG*dT*dA*d[5mC]*d[5mC]*dA*kA*k[5mC]*kA; antisense) [compound 798868]”, 48%.
Same read-out and setting: under “798869 (kA*kA*k[5mC]*dA*d[5mC]*d[5mC]*dT*dT*dG*dT*dG*dT*dA*k[5mC]*k[5mC]*kA; antisense) [compound 798869]” stands 41%; under “798870 (kG*kG*kG*dA*dA*d[5mC]*dA*d[5mC]*d[5mC]*dT*dT*dG*dT*kG*kT*kA; antisense) [compound 798870]”, 14%; under “798879 (kA*k[5mC]*kG*dG*d[5mC]*dT*dG*d[5mC]*dT*dG*d[5mC]*dA*dT*kA*kA*kA; antisense) [compound 798879]”, 57%.
On to “798880 (kT*k[5mC]*k[5mC]*dA*d[5mC]*dG*dG*d[5mC]*dT*dG*d[5mC]*dT*dG*k[5mC]*kA*kT; antisense) [compound 798880]”, for which the “% Inhibition” value is 37%.
On to “798881 (k[5mC]*k[5mC]*kG*dT*d[5mC]*d[5mC]*dA*d[5mC]*dG*dG*d[5mC]*dT*dG*k[5mC]*kT*kG; antisense) [compound 798881]”, for which the “% Inhibition” value was 14%.
Same read-out and setting: then “798882 (kA*kG*k[5mC]*d[5mC]*d[5mC]*dG*dT*d[5mC]*d[5mC]*dA*d[5mC]*dG*dG*k[5mC]*kT*kG; antisense) [compound 798882]”, with 0%; and “798883 (kT*kA*kA*dA*dG*d[5mC]*d[5mC]*d[5mC]*dG*dT*d[5mC]*d[5mC]*dA*k[5mC]*kG*kG; antisense) [compound 798883]”, with 0%; and “798884 (k[5mC]*kG*kG*dT*dA*dA*dA*dG*d[5mC]*d[5mC]*d[5mC]*dG*dT*k[5mC]*k[5mC]*kA; antisense) [compound 798884]”, with 15%.
Consider “798885 (kG*k[5mC]*kA*d[5mC]*dG*dG*dT*dA*dA*dA*dG*d[5mC]*d[5mC]*k[5mC]*kG*kT; antisense) [compound 798885]”, for which the “% Inhibition” value was found to be 43%.
Same read-out and setting: under “798886 (kT*k[5mC]*kT*dG*d[5mC]*dA*d[5mC]*dG*dG*dT*dA*dA*dA*kG*k[5mC]*k[5mC]; antisense) [compound 798886]” stands 29%.
Still for that read-out and setting: under “798887 (k[5mC]*kT*kG*dA*dT*d[5mC]*dT*dG*d[5mC]*dA*d[5mC]*dG*dG*kT*kA*kA; antisense) [compound 798887]” stands 26%.
The same measure, in the same setting: then “798888 (kA*kA*kA*dG*d[5mC]*dT*dG*dA*dT*d[5mC]*dT*dG*d[5mC]*kA*k[5mC]*kG; antisense) [compound 798888]”, with 40%; and “798898 (kA*kG*k[5mC]*dT*dG*d[5mC]*dT*dG*dA*dT*dG*dA*dA*k[5mC]*kT*kG; antisense) [compound 798898]”, with 2%.
Take “798899 (kG*kG*k[5mC]*dA*dG*d[5mC]*dT*dG*d[5mC]*dT*dG*dA*dT*kG*kA*kA; antisense) [compound 798899]”: the “% Inhibition” value was determined as 13%.
Same read-out and setting: under “798900 (k[5mC]*k[5mC]*kA*dG*d[5mC]*dA*d[5mC]*dG*dG*dG*d[5mC]*dA*dG*k[5mC]*kT*kG; antisense) [compound 798900]” stands 0%; under “798901 (k[5mC]*k[5mC]*kT*d[5mC]*dT*dA*dG*d[5mC]*d[5mC]*dA*dG*d[5mC]*dA*k[5mC]*kG*kG; antisense) [compound 798901]”, 30%; under “798902 (kT*kG*kA*d[5mC]*d[5mC]*dT*d[5mC]*dT*dA*dG*d[5mC]*d[5mC]*dA*kG*k[5mC]*kA; antisense) [compound 798902]”, 54%.
Still for that read-out and setting: then “798903 (kA*kA*kG*dA*dT*dG*dA*d[5mC]*d[5mC]*dT*d[5mC]*dT*dA*kG*k[5mC]*k[5mC]; antisense) [compound 798903]”, with 48%; and “798904 (kT*kT*kG*dA*dA*dG*dA*dT*dG*dA*d[5mC]*d[5mC]*dT*k[5mC]*kT*kA; antisense) [compound 798904]”, with 23%.
On the same count and under the same terms, then “798905 (kG*kG*k[5mC]*dT*dG*dT*dT*dG*dA*dA*dG*dA*dT*kG*kA*k[5mC]; antisense) [compound 798905]”, with 35%.

The values are drawn from patent US10517889B2, “Modulators of SMAD7 expression” (Ionis Pharmaceuticals, Inc., priority 2017, dated 2019).
